Paper PMC11944476, “In Vitro Evaluation of Esters of Quinoxaline-1,4-di-N-oxide Derivatives as New Antitaeniasis Agents and Their Inhibitory Activity Against Triosephosphate Isomerase” (Pharmaceuticals, 2025)

What was measured:
[1] = biological target: T1, recombinant TsTIM (WT TsTIM) (Taenia solium, UniProt Q9GTX8); test: enzyme inactivation assay, GAP to DHAP, alpha-GDH coupled NADH oxidation at […] nm; assay type: biochemical
T1 construct: N-terminal six-His tag from pRSET, expressed in E. coli BL21 Codon Plus (DE3)-RIL, IMAC-purified, tag removal not mentioned; TIM is a dimer

[2] = biological target: T1, recombinant TsTIM (WT TsTIM); test: alpha-GDH coupled NADH oxidation at […] nm; assay type: biochemical; conditions: GAP to DHAP direction

T1 sequence (Q9GTX8 whole entry): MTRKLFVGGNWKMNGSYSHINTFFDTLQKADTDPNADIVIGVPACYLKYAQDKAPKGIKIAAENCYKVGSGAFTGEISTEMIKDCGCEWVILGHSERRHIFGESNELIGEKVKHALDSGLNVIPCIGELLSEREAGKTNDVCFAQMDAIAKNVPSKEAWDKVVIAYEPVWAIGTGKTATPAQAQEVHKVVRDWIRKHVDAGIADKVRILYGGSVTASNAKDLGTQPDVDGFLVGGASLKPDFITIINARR

Row | Structure (SMILES) | inhibition at 1000 µM [1] | alpha-GDH coupled NADH oxidation at 340 nm [2]
1 | CCOC(=O)c1ccc2c(c1)[n+]([O-])c(C(=O)c1cccs1)c(C(F)(F)F)[n+]2[O-] [TS-12] | < 40% | 
2 | O=C[C@H](O)COP(=O)(O)O [glyceraldehyde 3-phosphate] |  | measuring the conversion of glyceraldehyde 3-phosphate (GAP) to dihydroxyacetone phosphate (DHAP)
